Molecular target: hCereblon(M1-L442)_hDDB1(M1-H1140) (Homo sapiens (Human), UniProt Q96SW2)
Assay: Fluorescence direct binding (tryptophan fluorescence titration)
Conditions: 20° C., excitation 280 nm, emission 340 nm, assay buffer 50 mM Hepes 7.4 200 mM NaCl; read-out: Fluorescence h-Cereblon_DDB1 Mean Kd_EQ
Protocol: Fluorescence Direct Binding Protocol
Determination of the affinities of compounds to protein containing one or more tryptophan is measurable by monitoring the fluorescence emission in direct mode. The measurements depending on the protein available amounts are performed either manually in a cuvette on ISS-PC1 photon counting spectrofluorometer or automatically in well plates on a fluorescence plate reader device. Fluorescence titrations are performed at 20° C. in the chosen binding assay buffer by using a defined constant protein concentration against ligand concentration variations. Small aliquots of known ligand concentration solubilized in DMSO were added and the fluorescence, excited at 280 nm, was recorded at 340 nm. The fluorescence intensity was corrected for protein dilution and for the filter effect (Birdsall et al.). The corrected fluorescence intensity was plotted against the ligand concentration and fitted using a four-parameter sigmoidal function, from which the equilibrium dissociation constant Kd was computed using the law of mass action assuming a 1:1 protein-ligand complex (Eftink, 1997).
• 1) Optimization of measurement parameters to minimize protein consumption and to minimize the dilution effect and the DMSO content • 2) Titration measurements of the protein against ligand by at least 12 titration steps to obtain a good s-curve fit • 3) Repeat the same titration measurements with the ligand alone to enable correction • 4) Check the stability of the protein once by titration against DMSO alone • 5) Determination of the molar extinction coefficients of the ligand at 280 and 340 nm with help of an UV-spectrophotometer • 6) Use Excel template for the correction of the measured raw data Use GraphPad Prism software for the quadratic binding fit and the KD evaluation.

Sequence of hCereblon(M1-L442)_hDDB1(M1-H1140) (Q96SW2 whole entry): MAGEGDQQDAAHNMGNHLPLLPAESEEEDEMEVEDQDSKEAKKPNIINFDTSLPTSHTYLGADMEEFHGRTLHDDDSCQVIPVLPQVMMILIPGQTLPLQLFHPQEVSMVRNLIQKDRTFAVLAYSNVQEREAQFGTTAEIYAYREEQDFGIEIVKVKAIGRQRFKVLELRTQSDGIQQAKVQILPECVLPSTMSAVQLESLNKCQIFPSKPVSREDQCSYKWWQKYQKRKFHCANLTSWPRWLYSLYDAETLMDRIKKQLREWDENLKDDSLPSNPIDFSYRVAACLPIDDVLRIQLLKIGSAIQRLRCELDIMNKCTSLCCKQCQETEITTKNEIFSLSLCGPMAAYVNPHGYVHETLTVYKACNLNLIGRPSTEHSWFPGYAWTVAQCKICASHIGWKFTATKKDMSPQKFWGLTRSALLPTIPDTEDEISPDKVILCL
Sequence of hCereblon(M1-L442)_hDDB1(M1-H1140) (Q16531 whole entry partner): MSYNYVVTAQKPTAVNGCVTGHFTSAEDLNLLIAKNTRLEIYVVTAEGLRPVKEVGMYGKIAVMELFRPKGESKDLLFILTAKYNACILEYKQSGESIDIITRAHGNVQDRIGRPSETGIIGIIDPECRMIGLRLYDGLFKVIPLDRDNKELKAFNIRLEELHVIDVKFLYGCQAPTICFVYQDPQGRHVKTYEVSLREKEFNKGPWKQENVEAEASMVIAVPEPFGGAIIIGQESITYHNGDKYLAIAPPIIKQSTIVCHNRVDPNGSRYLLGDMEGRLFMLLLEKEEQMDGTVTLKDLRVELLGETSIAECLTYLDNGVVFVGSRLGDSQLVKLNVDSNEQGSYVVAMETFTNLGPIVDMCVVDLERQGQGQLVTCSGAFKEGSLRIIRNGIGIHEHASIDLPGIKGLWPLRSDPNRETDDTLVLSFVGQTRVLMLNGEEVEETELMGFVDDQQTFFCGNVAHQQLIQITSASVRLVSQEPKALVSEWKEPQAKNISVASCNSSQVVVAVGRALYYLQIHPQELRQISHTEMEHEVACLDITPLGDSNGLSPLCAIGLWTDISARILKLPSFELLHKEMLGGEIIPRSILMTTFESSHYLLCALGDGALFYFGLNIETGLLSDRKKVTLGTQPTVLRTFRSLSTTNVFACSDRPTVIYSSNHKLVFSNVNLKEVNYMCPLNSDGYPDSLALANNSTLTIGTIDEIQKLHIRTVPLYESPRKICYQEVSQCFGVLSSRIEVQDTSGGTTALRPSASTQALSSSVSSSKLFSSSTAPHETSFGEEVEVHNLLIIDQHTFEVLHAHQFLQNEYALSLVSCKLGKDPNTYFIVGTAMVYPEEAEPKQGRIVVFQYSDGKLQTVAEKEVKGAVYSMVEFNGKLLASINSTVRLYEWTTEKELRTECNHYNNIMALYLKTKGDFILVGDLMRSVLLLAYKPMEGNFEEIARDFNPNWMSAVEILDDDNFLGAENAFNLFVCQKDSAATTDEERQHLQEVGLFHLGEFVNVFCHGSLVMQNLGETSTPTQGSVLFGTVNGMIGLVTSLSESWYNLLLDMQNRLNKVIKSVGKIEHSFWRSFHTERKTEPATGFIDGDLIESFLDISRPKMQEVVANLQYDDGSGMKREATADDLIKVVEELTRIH

Kd [µM] | SMILES
0.003 | CNC(=O)c1ccc2c(c1)nc(C(C)C)n2-c1ccc2c(c1)CC(=O)N2 [Example 5, 2-Isopropyl-N-methyl-1-(2-oxoindolin-5-yl)benzimidazole-5-carboxamide]
< 0.001 | CC(C)c1nc2ccccc2n1-c1cnc2c(c1)CC(=O)N2 [Example 27, 5-(2-Isopropylbenzimidazol-1-yl)-1,3-dihydropyrrolo[2,3-b]pyridin-2-one]
0.002 | CNC(=O)c1ccc2c(c1)nc(C(C)C)n2-c1ccc2c(c1)NC(=O)C2 [Example 4, 2-Isopropyl-N-methyl-1-(2-oxoindolin-6-yl)benzimidazole-5-carboxamide]
< 0.001 | CC(C)c1nc2ccccc2n1-c1ccc2c(c1)C(F)(F)C(=O)N2 [Example 21, 3,3-Difluoro-5-(2-isopropylbenzimidazol-1-yl)indolin-2-one]
0.019 | CC(C)c1nc2ccccc2n1-c1ccc2[nH]c(=O)sc2c1 [Example 7, 6-(2-Isopropylbenzimidazol-1-yl)-3H-1,3-benzothiazol-2-one]
0.015 | O=C1Cc2cc(C(=O)N3CCc4ccccc43)ccc2N1 [Example 17, 5-(Indoline-1-carbonyl)indolin-2-one]
0.091 | O=C1Cc2cc(C(=O)Nc3ccccc3)ccc2N1 [Example 10, 2-Oxo-N-phenylindoline-5-carboxamide]
0.108 | CC(C)c1nc2ccccc2n1-c1ccc2[nH]c(=O)oc2c1 [Example 9, 6-(2-Isopropylbenzimidazol-1-yl)-3H-1,3-benzoxazol-2-one]
0.007 | CNC(=O)c1ccc2c(c1)nc(C(C)C)n2-c1cnc2c(c1)CC(=O)N2 [Example 26, 2-Isopropyl-N-methyl-1-(2-oxo-1,3-dihydropyrrolo[2,3-b]pyridin-5-yl)benzimidazole-5-carboxamide]

The remaining lines, values behind:

SMILES | Kd [µM]
Cc1ccccc1OCC(=O)Nc1ccc2[nH]c(=O)sc2c1 [Example 3, 2-(2-Methylphenoxy)-N-(2-oxo-3H-1,3-benzothiazol-6-yl)acetamide] | 0.014
O=C(c1ccc2[nH]c(=O)oc2c1)N1Cc2cccc([N+](=O)[O-])c2C1 [Example 23, 6-(4-Nitroisoindoline-2-carbonyl)-3H-1,3-benzoxazol-2-one] | 0.014
O=C(Nc1ccccc1)c1ccc2[nH]c(=O)oc2c1 [Example 11, 2-Oxo-N-phenyl-3H-1,3-benzoxazole-6-carboxamide] | 0.054
O=C1Cc2cc(NC(=O)c3ccco3)ccc2N1 [Example 2, N-(2-Oxoindolin-5-yl)furan-2-carboxamide] | 0.007
Nc1ccccc1Nc1ccc2[nH]c(=O)oc2c1 [Example 8, 6-(2-Aminoanilino)-3H-1,3-benzoxazol-2-one] | 0.008
O=C(c1ccc2[nH]c(=O)oc2c1)N1Cc2cccc(O)c2C1 [Example 22, 6-(4-Hydroxyisoindoline-2-carbonyl)-3H-1,3-benzoxazol-2-one] | 0.002
O=C(c1ccc2[nH]c(=O)oc2c1)N1CCc2cccnc21 [Example 14, 6-(2,3-Dihydropyrrolo[2,3-b]pyridine-1-carbonyl)-3H-1,3-benzoxazol-2-one] | 0.024
CC(=O)N1CCC(NC(=O)c2ccc3[nH]c(=O)oc3c2)CC1 [Example 12, N-(1-Acetyl-4-piperidyl)-2-oxo-3H-1,3-benzoxazole-6-carboxamide] | 0.006
O=C(Nc1ccc2c(c1)C(F)(F)C(=O)N2)C1CCCc2ccccc21 (stereo not drawn) [Example 24, N-(3,3-difluoro-2-oxo-indolin-5-yl)tetralin-1-carboxamide] | 0.028
O=C(Nc1ccccc1)c1ccc2[nH]c(=O)sc2c1 [Example 15, 2-Oxo-N-phenyl-3H-1,3-benzothiazole-6-carboxamide] | 0.079
O=C(c1ccc2[nH]c(=O)sc2c1)N1CCc2ccccc21 [Example 16, 6-(Indoline-1-carbonyl)-3H-1,3-benzothiazol-2-one] | 0.028
O=C(Nc1ccccc1)c1cnc2[nH]c(=O)oc2c1 [Example 18, 2-Oxo-N-phenyl-3H-oxazolo[4,5-b]pyridine-6-carboxamide] | 0.024
O=C1Cc2cc(C(=O)N3CCc4ccccc43)cnc2N1 [Example 20, 5-(Indoline-1-carbonyl)-1,3-dihydropyrrolo[2,3-b]pyridin-2-one] | 0.013
O=C(Nc1ccc2[nH]c(=O)oc2c1)c1ccccc1 [Example 1, N-(2-Oxo-3H-1,3-benzoxazol-6-yl)benzamide] | 0.004
CC(=O)N1CCC(NC(=O)c2cnc3[nH]c(=O)oc3c2)CC1 [Example 19, N-(1-Acetyl-4-piperidyl)-2-oxo-3H-oxazolo[4,5-b]pyridine-6-carboxamide] | 0.007
Nc1ccccc1Nc1ccc2[nH]c(=O)sc2c1 [Example 6, 6-(2-Aminoanilino)-3H-1,3-benzothiazol-2-one] | < 0.001
O=C(Nc1ccc2c(c1)C(F)(F)C(=O)N2)c1coc2ccccc12 [Example 25, N-(3,3-difluoro-2-oxo-indolin-5-yl)benzofuran-3-carboxamide] | 0.052
O=C(c1ccc2[nH]c(=O)oc2c1)N1CCc2ccccc21 [Example 13, 6-(Indoline-1-carbonyl)-3H-1,3-benzoxazol-2-one] | 0.004

Source: US12528797B2, “Heterocyclic compounds for medical treatment” (C4 Therapeutics, Inc., priority 2019, dated 2026)
